{
  "source": "patent US20120264928A1",
  "about": "“THERAPEUTIC PHARMACEUTICAL AGENT FOR DISEASES ASSOCIATED WITH DECREASE IN FUNCTION OF GNE PROTEIN, FOOD COMPOSITION, AND FOOD ADDITIVE” (JAPAN HEALTH SCIENCES FOUNDATION, priority 2009, published 2012)",
  "key": {"[1]": {"system": "DMRV model mice", "assay": "Survival rate of treated DMRV model mice", "type": "in vivo", "settings": "vs placebo group", "protocol": "DMRV model mice were GNE^(−/−)hGNED176V-Tg described in Japanese Unexamined Patent Application Publication No. 2007-312641. Healthy litters having no GNE gene mutation were used as controls. The mice in the present example freely take water and feed and ingest 14 mg/kg body weight/day of N-acetylneuraminic acid compound on average.\n(§1) 20 mg/kg body weight/day of ManNAc (N=6), NeuAc (N=5), or sialyllactose (N=7) dissolved in drinking water was administered to the DMRV model mice between 11- to 15-week old and 56- to 58-week old for 43 to 45 weeks. 40 mg (N=5) or 400 mg/kg body weight/day (N=4) of Ac4ManNAc dissolved in drinking water was administered to the DMRV model mice of the same ages for 43 to 47 weeks. Drinking water free of the pharmaceutical agents was supplied to mice in a placebo group.\n(§2) During the administration of the pharmaceutical agent, the measurement of the body weight, the determination of the survival rate, blood collection (0, 25, and 49 days after the start of administration, and thereafter at intervals of 28 days), and a hanging test (0 and 49 days after the start of administration, and thereafter at intervals of 56 days) were performed at regular intervals. Survivors after the administration (ManNAc-treated group: N=5, NeuAc-treated group: N=5, sialyllactose group: N=6) were subjected to a treadmill test. A muscle tissue was then excised and was subjected to a muscle contraction test, the measurement of the amount of NeuAc, and pathological observation."}, "[2]": {"system": "primary cultured cells of myotubes derived from the DMRV human patients", "assay": "Amount of NeuAc by HPLC in myotubes from DMRV human patients", "type": "cell-based", "settings": "three days, N=3", "source_text": "DMRV human patients are adult patients that have been diagnosed with DMRV by means of GNE gene mutation screening. (Number of patients: 42, the age of the onset of the disease: 20 to 30, sex: male and female) In accordance with a protocol approved by National Center of Neurology and Psychiatry, after obtaining informed consent, skeletal muscles (biceps brachii muscles and anterior tibial muscles) were collected from these patient volunteers under local anesthesia by means of biopsy.\nThe skeletal muscle tissues collected from the DMRV human patients or the model mice were lightly washed with PBS or Hank's balanced saline and were treated with 0.25% trypsin for 5 minutes. The tissues were finely cut into several millimeters with ophthalmic scissors, were digested with 0.4% collagenase II/0.25% trypsin at 37° C. for 30 minutes, and were left still to collect supernatant. The precipitate was again treated with the enzyme liquid. After being left still, the precipitate was well suspended in a DMEM-Ham's F-12 culture medium. The tissue suspension was passed through a nylon mesh to remove the tissues. The washings and the supernatant were centrifuged to collect cells. The cells thus collected were plated on a DMEM-Ham's F-12 culture medium at a cell density of 10^6 in a 100-mm plastic dish and were cultured at 37° C. in 5% CO2 for 4 to 7 days.\nIn the case that the sample was cultured cells, the cells were washed with PBS three times, and 400 p. 1 of 50 mM sulfuric acid was added to the cells. The cells were incubated at 80° C. for 60 minutes and were hydrolyzed to release NeuAc and NeuGc. In the case that the sample was a piece of tissue, the tissue was frozen, was pulverized with an air hammer, and was homogenized in a KCl-tris solution. […] The fluorescent derivative thus prepared was analyzed with HPLC (JASCO Corp.) using 0.05 to 5 nmol/μl Neu5Ac and Neu5Gc standards. The amount of protein from the tissue was measured with a Bio-Rad Protein Assay kit (Bio-Rad Laboratories).\n[…] The amount of NeuAc in the cultured cells was measured by the HPLC method described above (N=3)."}, "[3]": {"system": "DMRV model mice", "assay": "Treadmill test, endurance test", "type": "in vivo", "settings": "vs placebo group", "protocol": "as §1, §2\nIn order to familiarize a mouse with the apparatus, training was started one week prior to testing. In this period, the mouse was made to run on a slope of 7 degrees at a velocity in the range of 5 to 15 m/min for 30 minutes every day for 7 days. As a motor ability test, the velocity was increased by 10 m/min per minute from the initial velocity of 20 m/min. The accumulated running distance up to the point where the mouse could not run anymore was measured. As an endurance test, a mouse was made to run on a slope of 7 degrees at a velocity of 20 m/min for 60 minutes. The mouse was then made to run for another 3 minutes, during which the times of the electrical stimulation given to the mouse by a stimulation grid disposed at the end of the running lane were measured."}, "[4]": {"system": "DMRV model mice", "assay": "Muscle contraction test", "type": "in vivo", "settings": "vs placebo group", "protocol": "as §1, §2\nAfter pentobarbital sodium (40 mg/kg body weight) was intraperitoneally administered to a mouse for anesthesia, a continuous muscle tissue of the tibialis anterior muscle and the gastrocnemius muscle was isolated. A terminal tendon of the isolated muscle tissue and the tibia were tied with a thread. The ends of the thread were connected at right angles to a tube for hanging a thread (a muscle length controller) and an isotonic transducer (TB-651T (for the gastrocnemius muscle) or TB-653TD-112S (for the tibialis anterior muscle), Nihon Kohden Corp.). The muscle tissue was placed in a lactated Ringer's solution (95% O2, 5% CO2). An electrostimulator (SEN-3301, Nihon Kohden Corp.) and an amplifier (PP-106H, Nihon Kohden Corp.) were used to expand the muscle tissue while providing 400 μs twitch stimulation. A length (L0) at which the maximum contractile force was produced and the contractile force (isometric contractile force: Pt) at that length were measured. While the muscle tissue was held at the length (L0) at which the contractile force was produced, the electrical stimulation was […] to 3 ms. The maximum contractile force (P0) was determined while 10- to 1000-Hz repetitive stimulation was provided 300 to 600 times at intervals of 2 minutes or more. After the measurement, the average cross-sectional area (CSA: muscle weight/L0) of the muscle tissue was calculated."}, "[5]": {"settings": "20 mg/kg body weight/day in drinking water, 43 to 45 weeks"}, "[6]": {"settings": "final concentration 0.005, 0.05, 0.5 or 5 mM"}, "[7]": {"settings": "20 mg/kg body weight/day in drinking water"}},
  "data": [
    {"smiles": "CC(=O)N[C@@H]1C(OC(C)=O)O[C@H](COC(C)=O)[C@@H](OC(C)=O)[C@@H]1OC(C)=O", "note": "(stereo partly drawn) [Ac4ManNAc, Tetra-O-acetyl-N-acetylmannosamine]", "values": [
      {"measurement": "survival rate", "setting": "[1]; 40 or 400 mg/kg body weight/day in drinking water, 43 to 47 weeks", "value": "higher"},
      {"measurement": "amount of NeuAc in the cells", "setting": "[2]; final concentration 0.0002, 0.002, 0.02 or 0.2 mM", "value": "effective in increasing the amount of NeuAc at low concentrations in a manner that depended on its dose"},
      {"measurement": "times of electrical stimulation for 3 minutes", "setting": "[3]; 40 mg/kg", "value": "significantly lower"},
      {"measurement": "times of electrical stimulation for 3 minutes", "setting": "[3]; 400 mg/kg", "value": "significantly lower"},
      {"measurement": "specific contractile force of the gastrocnemius muscle", "setting": "[4]; 40 mg/kg", "value": "significantly higher"},
      {"measurement": "Pt per cross-sectional area of the muscle", "setting": "[4]; 400 mg/kg", "value": "significantly higher"},
      {"measurement": "specific contractile force of the gastrocnemius muscle", "setting": "[4]; 400 mg/kg", "value": "significantly higher"}
    ]},
    {"smiles": "CC(=O)N[C@@H]1C(O)O[C@H](CO)[C@@H](O)[C@@H]1O", "note": "(stereo partly drawn) [ManNAc, N-acetylmannosamine, reference compound]", "values": [
      {"measurement": "survival rate", "setting": "[1]; [5]", "value": "significantly higher"},
      {"measurement": "amount of NeuAc in the cells", "setting": "[2]; [6]", "value": "effective in increasing the amount of NeuAc in the cells in a manner that depended on their doses"},
      {"measurement": "times of electrical stimulation for 3 minutes", "setting": "[3]; [7]", "value": "significantly lower"},
      {"measurement": "Pt per cross-sectional area of the muscle", "setting": "[4]; [7]", "value": "significantly higher"},
      {"measurement": "cross-sectional area of the gastrocnemius muscle", "setting": "[4]; [7]", "value": "significantly higher"},
      {"measurement": "specific contractile force of the gastrocnemius muscle (P0 per cross-sectional area of the muscle)", "setting": "[4]; [7]", "value": "significantly higher"}
    ]},
    {"smiles": "CC(=O)N[C@H]1[C@H]([C@H](O)[C@H](O)CO)OC(O)(C(=O)O)C[C@@H]1O", "note": "(stereo partly drawn) [NeuAc, N-acetylneuraminic acid]", "values": [
      {"measurement": "survival rate", "setting": "[1]; [5]", "value": "significantly higher"},
      {"measurement": "amount of NeuAc in the cells", "setting": "[2]; [6]", "value": "effective in increasing the amount of NeuAc in the cells in a manner that depended on their doses"},
      {"measurement": "times of electrical stimulation for 3 minutes", "setting": "[3]; [7]", "value": "significantly lower"},
      {"measurement": "Pt per cross-sectional area of the muscle", "setting": "[4]; [7]", "value": "significantly higher"},
      {"measurement": "cross-sectional area of the gastrocnemius muscle", "setting": "[4]; [7]", "value": "significantly higher"},
      {"measurement": "specific contractile force of the gastrocnemius muscle (P0 per cross-sectional area of the muscle)", "setting": "[4]; [7]", "value": "significantly higher"}
    ]},
    {"smiles": "CC(=O)N[C@H]1[C@H]([C@H](O)[C@H](O)CO)O[C@@](O[C@H]2[C@@H](O)[C@@H](CO)O[C@@H](O[C@H]3[C@H](O)[C@@H](O)C(O)O[C@@H]3CO)[C@@H]2O)(C(=O)O)C[C@@H]1O", "note": "(stereo partly drawn) [sialyllactose, NeuAcα2-3Galβ1-4Glc]", "values": [
      {"measurement": "survival rate", "setting": "[1]; [5]", "value": "significantly higher"},
      {"measurement": "times of electrical stimulation for 3 minutes", "setting": "[3]; [7]", "value": "significantly lower"},
      {"measurement": "Pt per cross-sectional area of the muscle", "setting": "[4]; [7]", "value": "significantly higher"},
      {"measurement": "cross-sectional area of the gastrocnemius muscle", "setting": "[4]; [7]", "value": "significantly higher"},
      {"measurement": "specific contractile force of the gastrocnemius muscle (P0 per cross-sectional area of the muscle)", "setting": "[4]; [7]", "value": "significantly higher"}
    ]}
  ]
}
